# Data from patent US4705805A, “Antithrombotic agent” (priority 1978, dated 1987).
# What was measured:
# [1] = system: rabbit blood platelets (platelet rich plasma), ADP-induced aggregation; assay: inhibition of platelet aggregation in rabbit platelet rich plasma (in vitro), induced by ADP; type: cell-based; details: rabbit PRP, ADP 10^-5 M; for inhibition at 30 µg/mL / inhibition at 100 µg/mL / inhibition at 3 µg/mL / inhibition at 10 µg/mL: Oryctolagus cuniculus, Platelet, read-out: percentage of inhibition, ADP; for inhibition at 30 µg/mL: 30 μg/ml; for inhibition at 3 µg/mL: 3 μg/ml; for inhibition at 10 µg/mL: 10 μg/ml
# Description: (§1) In this example, the inhibition of platelet aggregation in rabbit platelet rich plasma (in vitro) is tested.
# (§2) In this test, 9 vol. of blood is sampled from the carotid artery of rabbits (2 to 2.5 Kg) and placed in a silicon-coated flask containing 1 vol. of 3.8% sodium citrate. The thus obtained blood is centrifuged at 1,000 rpm for 15 minutes to obtain platelet rich plasma (referred to as "PRP" hereinafter). The aggregation of blood platelets is observed using an aggregometer (made by Bryston Co.) and the degree of aggregation after the addition of aggregation promoting substances is measured by nephelometry, i.e., through increase in light transmission.
# (§3) The PRP (0.9 ml) is placed in a silicon-coated cuvett of the aggregometer. Then, 0.05 ml of physiological saline solution containing various concentrations of test reagents or control reagents is added and the mixture is allowed to stand for one minute. Compounds promoting aggregation are then added and the absorbancy of the solution is measured and the percent inhibition of aggregation is calculated according to the following equation: [formula] C: Transmittancy showing the maximum percent aggregation by physiological saline solution
# (§4) D: Transmittancy showing the maximum percent aggregation by sample
# (§5) Test for the inhibition of platelet aggregation induced by ADP, collagen and thrombin.
# [2] = system: rabbit blood platelets (platelet rich plasma), collagen-induced aggregation; assay: inhibition of platelet aggregation in rabbit platelet rich plasma (in vitro), induced by collagen; type: cell-based; details: rabbit PRP; for inhibition at 30 µg/mL / inhibition at 100 µg/mL / inhibition at 1 µg/mL / inhibition at 3 µg/mL / inhibition at 10 µg/mL: Oryctolagus cuniculus, Platelet, read-out: percentage of inhibition, collagen; for inhibition at 30 µg/mL: 30 μg/ml; for inhibition at 1 µg/mL: 1 μg/ml; for inhibition at 3 µg/mL: 3 μg/ml; for inhibition at 10 µg/mL: 10 μg/ml
# Description: as §1, §2, §3, §4, §5
# [3] = acute toxicity, Behrens-Karber's method; type: in vivo; details: in vivo; mouse, oral
# Description: In this example, the acute toxicity of compounds of the invention is determined by Behrens-Karber's method using, 5 male dd-strain for each group weighing 20±1 g. A 0.3% CMC suspension of the test compound (concentration of the test compound: 100 mg/ml) is then orally administered to each mouse.
# [4] = system: human platelet rich plasma, collagen-induced aggregation; assay: inhibition of platelet aggregation in human platelet rich plasma, induced by collagen; type: cell-based; details: human PRP, read-out: percentage inhibition, collagen
# Description: as §2, §3, §4
# (§6) In this example, the same procedures are repeated as in Example 10 except that human platelet rich plasma is used in place of rabbit platelet rich plasma.
# [5] = system: human platelet rich plasma, ADP-induced aggregation; assay: inhibition of platelet aggregation in human platelet rich plasma, induced by ADP; type: cell-based; details: human PRP, read-out: percentage inhibition, ADP
# Description: as §2, §3, §4, §6
Compound,inhibition at 30 µg/mL [1] [%],inhibition at 100 µg/mL ([1]; 100 μg/ml) [%],inhibition at 30 µg/mL [2] [%],inhibition at 100 µg/mL ([2]; 100 μg/ml) [%],further results
"O=C(c1ccccc1SSc1ccccc1C(=O)N(c1ccccc1)c1ccccc1)N(c1ccccc1)c1ccccc1 [Compound XIII, 2,2'-dithiobis(N-diphenylbenzamide)]",16,60,12.2,47,
"O=C(NC1CCC(O)CC1)c1ccccc1SSc1ccccc1C(=O)NC1CCC(O)CC1 (stereo not shown) [Compound XXXVI, 2,2'-dithiobis[N-(4-hydroxycyclohexyl)benzamide]]",,35,8,95,
"CCCCCCCCCCCCNC(=O)c1ccccc1SSc1ccccc1C(=O)NCCCCCCCCCCCC [Compound VI, 2,2'-dithiobis(N-dodecylbenzamide)]",0,35,0,89,
"CCCCNC(=O)c1ccccc1SSc1ccccc1C(=O)NCCCC [Compound I, 2,2'-dithiobis(N-n-butylbenzamide)]",13.4,46.6,16.5,100,LD50 [3]: ≥ 300 mg/kg
"CN1CCN(C(=O)c2ccccc2SSc2ccccc2C(=O)N2CCN(C)CC2)CC1 [Compound XXXII, 2,2'-dithiobis(N'-methylbenzpiperazide)]",100,,100,,inhibition at 30 µg/mL ([4]; 30 μg/ml): 34%; inhibition at 100 µg/mL ([4]; 100 μg/ml): 100%; inhibition at 3 µg/mL [1]: 26%; inhibition at 10 µg/mL [1]: 62%; inhibition at 1 µg/mL [2]: 2%; inhibition at 3 µg/mL [2]: 59%; inhibition at 10 µg/mL [2]: 90%; inhibition at 30 µg/mL ([5]; 30 μg/ml): 15%; inhibition at 100 µg/mL ([5]; 100 μg/ml): 60%
"O=C(c1ccccc1SSc1ccccc1C(=O)N1CCN(c2ccccc2)CC1)N1CCN(c2ccccc2)CC1 [Compound XXVIII, 2,2'-dithiobis(N'-phenylbenzpiperazide)]",55,,99,,inhibition at 10 µg/mL [1]: 19%; LD50 [3]: ≥ 1000 mg/kg; inhibition at 3 µg/mL [2]: 14%; inhibition at 10 µg/mL [2]: 55%
"O=C(NCCCO)c1ccccc1SSc1ccccc1C(=O)NCCCO [Compound XVI, 2,2'-dithiobis(N-3-hydroxypropylbenzamide)]",,88,,100,inhibition at 3 µg/mL [1]: 42%; inhibition at 10 µg/mL [1]: 64%; inhibition at 1 µg/mL [2]: 8%; inhibition at 3 µg/mL [2]: 50%; inhibition at 10 µg/mL [2]: 78%
"O=C(NC1CCCCC1)c1ccccc1SSc1ccccc1C(=O)NC1CCCCC1 [Compound XXVI, 2,2'-dithiobis(N-cyclohexylbenzamide)]",30,,25,,LD50 [3]: ≥ 1000 mg/kg
"CCCCCCCCCCCC(=O)OCCCNC(=O)c1ccccc1SSc1ccccc1C(=O)NCCCOC(=O)CCCCCCCCCCC [Compound XXI, 2,2'-dithiobis(N-dodecanoyloxypropylbenzamide)]",5,32,0,33,
"Nc1ncnc2c1ncn2[C@@H]1O[C@H](CO)[C@@H](O)[C@H]1O [adenosine, reference compound]",,39,,,
"O=C(NC(CO)(CO)CO)c1ccccc1SSc1ccccc1C(=O)NC(CO)(CO)CO [Compound XLI, 2,2'-dithiobis[N-2-hydroxy-1,1-di-(1'-hydroxymethyl)-ethylbenzamide]]",22,71,7,96,LD50 [3]: ≥ 1000 mg/kg
"O=C(NCCCCO)c1ccccc1SSc1ccccc1C(=O)NCCCCO [Compound XVII, 2,2'-dithiobis(N-4-hydroxybutylbenzamide)]",45,100,100,100,inhibition at 3 µg/mL [2]: 0%; inhibition at 10 µg/mL [2]: 97%
"CCCCN(CCCC)C(=O)c1ccccc1SSc1ccccc1C(=O)N(CCCC)CCCC [Compound VIII, 2,2'-dithiobis(N-dibutylbenzamide)]",0,9,0,13,LD50 [3]: ≥ 1000 mg/kg
"COC(CNC(=O)c1ccccc1SSc1ccccc1C(=O)NCC(OC)OC)OC [Compound XXXIV, 2,2'-dithiobis(N-2,2-di-methoxyethylbenzamide)]",83,,100,,inhibition at 3 µg/mL [1]: 21%; inhibition at 10 µg/mL [1]: 35%; inhibition at 3 µg/mL [2]: 21%; inhibition at 10 µg/mL [2]: 87%
"CCCCCCCCCCCCCCCC(=O)OC(C)CNC(=O)c1ccccc1SSc1ccccc1C(=O)NCC(C)OC(=O)CCCCCCCCCCCCCCC (stereo not shown) [Compound XXIV, 2,2'-dithiobis(N-2-hexadecanoyloxypropylbenzamide)]",0,59,19,86,
"O=C(Nc1cccc(Cl)c1)c1ccccc1SSc1ccccc1C(=O)Nc1cccc(Cl)c1 [Compound XI, 2,2'-dithiobis(N-m-chlorophenylbenzamide)]",29,96,99,100,inhibition at 10 µg/mL [1]: 0%; inhibition at 10 µg/mL [2]: 0%
"O=C(NCN1CCCCC1)c1ccccc1SSc1ccccc1C(=O)NCN1CCCCC1 [Compound XXXVII, 2,2'-dithiobis(N-piperidinylmethylbenzamide)]",,20,,,
"O=C(NCC(O)c1ccccc1)c1ccccc1SSc1ccccc1C(=O)NCC(O)c1ccccc1 (stereo not shown) [Compound XXXVIII, 2,2'-dithiobis(N-2-hydroxy-2-phenylethylbenzamide)]",,12,,19,
"CCOCCCNC(=O)c1ccccc1SSc1ccccc1C(=O)NCCCOCC [Compound XXXV, 2,2'-dithiobis(N-3-ethyloxypropylbenzamide)]",,35,31,100,inhibition at 10 µg/mL [2]: 15%
"CC(CCc1ccccc1)NC(=O)c1ccccc1SSc1ccccc1C(=O)NC(C)CCc1ccccc1 (stereo not shown) [Compound XIV, 2,2'-dithiobis[N-(1-methyl-3-phenylpropyl)]benzamide]",28,,24,,
"CCCCCCCCCCCCCCCC(=O)OCCNC(=O)c1ccccc1SSc1ccccc1C(=O)NCCOC(=O)CCCCCCCCCCCCCCC [Compound XX, 2,2'-dithiobis(N-2-hexadecanoyloxyethylbenzamide)]",0,23,0,33,
"O=C(c1ccccc1SSc1ccccc1C(=O)N1CCN(C(c2ccccc2)c2ccccc2)CC1)N1CCN(C(c2ccccc2)c2ccccc2)CC1 [Compound XXXIII, 2,2'-dithiobis(N'-diphenylmethylbenzpiperazide)]",16,,22,,
"CCCCCCCCCCCC(=O)OC(C)CNC(=O)c1ccccc1SSc1ccccc1C(=O)NCC(C)OC(=O)CCCCCCCCCCC (stereo not shown) [Compound XXIII, 2,2'-dithiobis(N-2-dodecanoyloxypropylbenzamide)]",19,93,52,100,
"CCCCCCCCCCCCCCCC(=O)OCCCNC(=O)c1ccccc1SSc1ccccc1C(=O)NCCCOC(=O)CCCCCCCCCCCCCCC [Compound XXII, 2,2'-dithiobis(N-hexadecanoyloxypropylbenzamide)]",0,40,0,18,
"2,2'-dithiobis(N-naphthylbenzamide) [Compound XXXIX]",,,,,"percentage of inhibition, ADP ([1]; 100 μg/ml): 25%; percentage of inhibition, collagen ([2]; 100 μg/ml): 12%"
"CCCCCCCCCCCCCCCCCCNC(=O)c1ccccc1SSc1ccccc1C(=O)NCCCCCCCCCCCCCCCCCC [Compound VII, 2,2'-dithiobis(N-octadecylbenzamide)]",0,10,0,38,
